Results from patent US20130012709A1, “NOVEL INHIBITORS OF STEAROYL-CoA-DESATURASE-1 AND THEIR USES” (CENTRE NATIONAL DE LA RECHERCHE SCIENTIFIQUE, priority 2009, published 2013).

Tests used:
C4-2 cells [1] = test: Proliferation assay (cell counting); format: cell-based, human; settings: C4-2, maximal dose used
Method: (§1) At 24 h, 48 h, 72 h and 96 h following addition of increasing concentrations of the tested compound in DMSO or DMSO alone, cells were trypsinized, pelleted by centrifugation at 1200 rpm for 5 min, resuspended in 500 μl of culture medium and counted in an hemocytometer.

LNCaP cells [2] = test: Proliferation assay (cell counting); format: cell-based, human; settings: maximal dose used
Method: as §1

PNT2 cells = test: Proliferation assay (cell counting); format: cell-based, human; settings: non-cancerous PNT2, even at a maximal dose
Method: as §1

LNCaP cells [3] = test: PI(3,4,5)P3 mass ELISA; format: cell-based, human; settings: 25 μM, 24 h, vs non-treated cells
Method: The production of PI(3,4,5)P3 (PIP3) in LNCaP and C4-2 prostate cancer cells was measured 24 h following exposure to control medium or to medium supplemented with the inhibitor tested at 25 μM. The levels of produced PIP3 were quantified after cellular lipids extraction using a PI(3,4,5)P3 mass ELISA kit according to the manufacturer's instruction.

C4-2 cells [4] = test: Human WNT Signaling Pathway PCR Array; format: cell-based; settings: C4-2, 25 μM
Method: C4-2 cells treated with the compound tested at 25 μM were analysed for the expression profiles of 84 genes related to Wnt-mediated signal transduction by using Human WNT Signaling Pathway PCR Array according to the manufacturers' recommendations (Tebu-Bio, Le Perray en Yvelines, France). The relative content of cDNA samples was normalized with the endogenous β2M, HPRT1, RPL13 and GAPDH reference genes, and the relative mRNA level was calculated according to the formula 2^−(ΔCt). Values are expressed as the fold change in relative mRNA level following treatment of cells with the tested compound at 25 μM, as compared to control.

C4-2 tumor xenografts = test: Subcutaneous xenograft, curative treatment; format: in vivo, mice
Method: (§2) Male athymic nude Mice (Foxn1 nu/nu) (Harlan, Grannat, France) were used at the age of 7 weeks (weight 25-30 g). All procedures were performed in compliance with the European Convention for the Protection of Vertebrate Animals Used for Experimentation (animal house agreement # B-34-172-27, authorization for animal experimentation #34.324). Experiments were done at least twice for each tested condition. Animals were sacrificed before they became compromised. Xenografts were established by subcutaneously injecting 2×10^6 LNCaP cells, 2×10^6 C4-2 cells or 5×10^5 MEFs SV40 in 100 μl of a Matrigel solution. For curative experiments, tumors were allowed to growth until they were measurable with a caliper. In each group, the mice were randomized and given SCD-1 inhibitor at 80 mg/kg in 100 μl of a labrafil-DMA-tween^80 solution (89:10:1) (treated group) or vehicle alone (control group), by daily intra-peritoneal (i.p.) injection 5 days of week. For preventive experiments, the mice were treated daily for 7 days before the day of xenograft. Tumor volume measurements were taken twice to three times a week and calculated according to the formula: length×width×height×0.5236. Data are expressed as the mean tumor volume or as fold of the start point tumor volume. For survival analysis, animals bearing pre-established C4-2 tumors were treated with BZ36 at 80 mg/kg or 160 mg/kg or with vehicle by daily i.p. injection 5 days of week. All mice were monitored for survival until tumor volume had reached 2000 mm^3 or until death. Analysis of survival was conducted by a log-rank test based on the Kaplan-Meier method. At euthanasia, tumors were excised and fixed in 4% formalin for immunohistological analyses.
(§3) Immunohistochemical analysis of SCD-1 expression was performed using high-density Tissue Microarray (TMA) slide (Accumax array) with 39 prostate adenocarcinoma spots from different patients (Gleason scores from 5 to 9) with corresponding normal tissues. Immunohistochemical analysis of pcna expression was performed on […] paraffin-embedded sections of LNCaP, C4-2 of Ras SV40 MEFs tumor xenografts. Briefly, after antigen retrieval, deparaffinized sections were blocked of Fc receptors with PBS containing 5% goat serum and then incubated with corresponding anti-SCD-1 mouse antibody, 1:50 (Abcam, Paris, France) or anti-pcna mouse antibody, 1:50 (Santa Cruz) in PBS-Tween 0.1%, overnight at 4° C. […] Sections were counterstained with Mayer's hematoxylin. […] Sections were mounted in mowiol and analysed rapidly.

LNCaP tumor xenografts = test: Subcutaneous xenograft, curative treatment; format: in vivo, mice
Method: as §2, §3

[5] = tested on: MEFs transformed by HaRasV12 and SV40 Large T; test: Proliferation of MEFs; format: cell-based, mouse
Method: (§4) Primary MEFs were obtained from embryos at embryonic day 13.5 by standard methods.
(§5) Monolayer cell cultures were grown in Dulbecco's Modified Eagle's Medium (DMEM) supplemented with 25 mM glucose and 10% FCS.
as §1

normal MEFs (WT) = test: Proliferation of MEFs; format: cell-based, mouse; settings: slowly growing normal MEFs (WT)
Method: as §4, §5, §1

[6] = tested on: p53−/− MEFs transformed by HaRasV12; test: Proliferation of MEFs; format: cell-based, mouse; settings: p53−/− MEFs fully transformed by HaRasV12
Method: as §4, §5, §1

transformed MEFs = test: Apoptosis, annexinV-FITC flow cytometry; format: cell-based, mouse; settings: all transformed cells, 25 μM, 24 h
Method: Cells were then rinsed in PBS, pelleted at 400 g for 5 min and maintained on ice for 20 min before resuspension in a […] propidium iodide (Sigma) solution. Cells were kept overnight at 4° C. and the percentages of cells in G1, S and G2-M phases of the cell cycle were measured with a Coulter Epics XL™ flow cytometer (Becton Dickinson) using 488-nm laser excitation. For apoptosis experiment, MEFs were treated with the tested compound at 25 μM for 24 h, then rinced in PBS, pelleted at 400 g for 5 min and stained with annexinV-FITC (Roche Diagnostics, Meylan, France) for 15 min at 4° C. The percentage of annexin positive cells was immediately analysed using 488-nm laser excitation.

COc1ccc(Br)c(C(=O)N2CCN(c3ccc(C(=O)NCCCc4ccccc4)cn3)CC2)c1 [BZ36]
inhibition of cell proliferation (C4-2 cells [1]): 100% | inhibition of cell proliferation (LNCaP cells [2]): 100% | effect in proliferation (PNT2 cells): no effect | decrease of PI(3,4,5)P3 concentration (LNCaP cells [3]): 84% | expression of genes in the β-cat pathway (frizzled family, cyclin D1, D2, D3, myc, c-jun, Wnt family members) (C4-2 cells [4]): decreased expression | mice with tumor volume increased more than 4-fold (C4-2 tumor xenografts; C4-2, 80 mg/kg, 42% of vehicle-treated mice): 12% | xenografted mice with tumor regression (C4-2 tumor xenografts; C4-2, 80 mg/kg, no regression in control mice): 19% | tumor volume and tumor growth rate (C4-2 tumor xenografts; C4-2 xenograft, 80 mg/kg i.p., vs vehicle): significantly reduced | decrease of proliferative tumor cells (PCNA immunostaining) (C4-2 tumor xenografts; C4-2 xenografts, 80 mg/kg, vs control animals): 41% | tumor volume and tumor growth rate (LNCaP tumor xenografts; LNCaP xenograft, 80 mg/kg i.p., vs vehicle): significantly reduced | decrease of proliferative tumor cells (PCNA immunostaining) (LNCaP tumor xenografts; LNCaP xenografts, 80 mg/kg, vs control animals): 50% | mice with tumor volume increased more than 4-fold (LNCaP tumor xenografts; LNCaP, 80 mg/kg, 42% of vehicle-treated mice): 18% | xenografted mice with tumor regression (LNCaP tumor xenografts; LNCaP, 80 mg/kg, no regression in control mice): 27% | proliferation index [5]: strongly decreased | proliferation index (normal MEFs (WT)): only moderately reduced | proliferation [6]: efficiently blocked | cell death (annexin V-positive cells) (transformed MEFs): strong induction of cell death
